Experimental data as given in patent US20230212316A1, “IgG EPITOPE PEPTIDES THAT BIND […] AND METHODS OF USE THEREOF” (priority 2021, published 2023).
Where no end group is shown, it is not given here. [ ]: non-standard residue; d: D form. Cit = NC(=O)NCCC[C@H](N)C(=O)O

Columns and labels:
[1] = tested on: serum IgG (rheumatoid factors); assay: Peptide ELISA: serum IgG binding to biotinylated IgG1-derived peptides; set-up: species or system human; settings: for Serum IgG binding to the peptide compared to controls: FIG. 3; for IgG binding to the peptide: Sjogren's disease subjects previously RF positive versus matched controls, FIG. 9B
[2] = tested on: serum IgM (rheumatoid factors); assay: Peptide ELISA: serum IgM binding to biotinylated IgG1-derived peptides; set-up: species or system human; settings: for IgM binding to the peptide: Sjogren's disease subjects previously RF positive versus matched controls, FIG. 9B; for IgM that binds to the peptide: COVID-19 convalescent subjects versus RA+, RA−, smokers and naïve controls, FIG. 8A
plasma IgG = settings: anti-CCP+ subjects who later develop RA compared to anti-CCP− subjects and CCP+ subjects who do not develop RA; FIG. 10B
Description: Human Subjects: Human subjects research was approved by the University of Wisconsin (UW) Institutional Review Board and complied with the Helsinki Declaration. Most sera were obtained from the UW Rheumatology Biorepository, which includes rheumatoid arthritis, systemic lupus erythematosus, Sjögren's disease (SjD), spondyloarthropathy, and controls (including current and never smokers) collected prior to 2019. Subjects were ≥18 years old. All subjects with rheumatic disease were confirmed to have that disease by a rheumatologist. […] Controls were matched by age and gender and carried none of the following diagnoses: RA, lupus, Sjögren's disease, scleroderma, psoriasis, psoriatic arthritis, ankylosing spondylitis, reactive arthritis, ulcerative colitis, Crohn's disease, multiple sclerosis, type I diabetes, hematologic malignancy, or past COVID-19.
Enzyme Linked Immunosorbent Assay (ELISA): For peptide ELISA, plates were coated with 5 μg/ml streptavidin (Thermo Fisher Scientific) for 1 hour at room temperature (RT) or overnight at 4 degrees Celsius, washed with PBS, then coated with 0.1-1.0 μM of peptide conjugated to biotin at the C terminus (Biomatik, Kitchener, Canada or Peptide2.0, Chantilly, Va., USA) for 1 hour at RT. For IgG Fc ELISA, plates were coated overnight at 4° C. with 10 μg/ml IgG Fc in PBS in 4 forms: treated with PADs in buffer, treated with 0.1M KOCN in dH2O, diluted in citrullination buffer, diluted in dH2O. After washing with PBS, plates were blocked for 1 hour to overnight at RT with 5% non-fat dried milk in 0.2% Tween 20 in PBS (serum ELISA block) or 1% BSA in PBS (mAMPA ELISA block without 0.1% Tween 20). Sera diluted 1:100, 1:200 or 1:2000 in serum ELISA block or 1 μg/m1mAMPAs in mAMPA ELISA block were applied to plates overnight at 4° C. […] After one hour at RT, plates were washed, developed with 3,3′,5,5′-tetramethylbenzidine (Thermo Fisher Scientific), then stopped with 0.18 M sulfuric acid. Plates were read on a FilterMAX F3 (Molecular Devices, San Jose, USA) at 450 and 562, with 562 values subtracted from 450 values for each sample. For each sample, absorbance values for uncoated wells were subtracted from peptide- or Fc-coated wells to exclude non-specific binding, and absorbance values for PAD-containing buffer were subtracted from wells coated with PAD-treated IgG Fc to exclude anti-PAD reactivity.

plasma IgM = assay: Pre-clinical RA peptide ELISA: plasma IgM binding to IgG1 peptides; set-up: species or system human; settings: CCP− controls and anti-CCP+ subjects who do not develop RA imminently compared to anti-CCP+ subjects who do develop RA imminently; FIG. 10A
Description: Subjects were ≥18 years old.

[3] = COVID-19 convalescent subjects, 5 weeks post-symptom resolution (n=121)
[4] = Control (non-smoking COVID-19 naïve controls without autoimmune disease, n=54)
[5] = RA+ (seropositive rheumatoid arthritis subjects, n=31)
[6] = RA− (seronegative rheumatoid arthritis subjects, n=26)

Sequence | Percent of subjects that would be considered seropositive for IgM antibodies against the peptide using a preliminary cutoff [2, 3] | Percent of subjects that would be considered seropositive for IgM antibodies against the peptide using a preliminary cutoff [2, 4] | Percent of subjects that would be considered seropositive for IgM antibodies against the peptide using a preliminary cutoff [2, 5] | Percent of subjects that would be considered seropositive for IgM antibodies against the peptide using a preliminary cutoff [2, 6] | IgM binding to the peptide [2] | Percent of subjects that would be considered seropositive for IgM antibodies against the peptide using a preliminary cutoff ([2]; Smoker (current smokers, n=10)) | IgG binding to the peptide [1] | IgM that binds to the peptide [2] | Plasma IgG that binds to the peptide (plasma IgG) | also measured
CPPCPAPELLGGPSV (IgG epitope) [Peptide P01857-109, native peptide from the hinge region of IgG1 starting at position 109] | – | – | – | – | – | – | – | – | – | Serum IgG binding to the peptide compared to controls ([1]; anti-CCP+RF+ RA): trend towards increased binding; Serum IgG binding to the peptide compared to controls ([1]; anti-CCP-RF− RA): no increased binding; Serum IgG binding to the peptide compared to controls ([1]; anti-SSA+ Sjögren's disease): significantly increased binding; Serum IgG binding to the peptide compared to controls ([1]; lupus): but not lupus or spondyloarthropathy serum IgG, had significantly increased binding; Serum IgG binding to the peptide compared to controls ([1]; spondyloarthropathy): but not lupus or spondyloarthropathy serum IgG, had significantly increased binding
DKTHTCPPCPAPELLG (IgG epitope) [Peptide P01857-104, native IgG1 hinge peptide, position 104] | 14% | 2% | 23% | 12% | bound | 20% | bound | – | – | –
KDTLMISRTPEVTCVV (IgG epitope) [Peptide P01857-131, native IgG1 peptide, position 131] | 45% | 2% | 0% | 0% | not bound | 0% | not bound | increased | – | –
LAPSSJSTSGGTAALGC [Peptide P01857-11J] | – | – | – | – | – | – | – | – | higher | –
LTVDKSRWQQGNVFSC (IgG epitope) [Peptide P01857-293, native IgG1 peptide, position 293] | 12% | 0% | 3% | 0% | not bound | 0% | not bound | increased | – | IgG that binds to the peptide ([1]; COVID-19 convalescent subjects versus RA+, RA−, smokers and naïve controls, FIG. 8B): increased
LYSJLTVDJSRWQQGNVFS [Peptide P01857-289J] | – | – | – | – | – | – | – | – | higher | –
LYSKLTVDKSBWQQGNVFS (LYSKLTVDKS[Cit]WQQGNVFS) [Peptide P01857-289B, citrulline (B)-containing IgG1 peptide, position 289] | – | – | – | – | – | – | – | – | – | Plasma IgM that binds to the peptide (plasma IgM): higher
RDELTKNQVSLTCLVK (IgG epitope) [Peptide P01857-238, native IgG1 peptide, position 238] | 44% | 0% | 6% | 4% | not bound | 0% | not bound | increased | – | –
TYICNVNHJPSNTJVDJJVEPJSC [Peptide P01857-80J] | – | – | – | – | – | – | – | – | higher | –
YJCJVSNJALPAP [Peptide P01857-202J] | – | – | – | – | – | – | – | – | higher | –
